From US9783522B2, “2-amino-pyridine and 2-amino-pyrimidine derivatives and medicinal use thereof” (MITSUBISHI TANABE PHARMA CORPORATION, priority 2014, dated 2017)

The molecules below were run against human recombinant ATX (Homo sapiens, UniProt Q13822) (assay: Enzyme inhibitory test (choline release from LPC, fluorescence)). Conditions: LPC substrate, room temperature 1 hr, read-out: Experimental Example 1 human ATX IC50.
Assay type: biochemical
Description: A mixture (10 μL) of substrate and a set of choline quantification reagents (200 μM LPC (1-Oleoyl-sn-glycero-3-phosphocholine Sigma #L1881), 25 μM Amplex UltraRed reagent (Invitrogen), 0.1 U/mL Peroxidase (TOYOBO), 1 U/mL Choline oxidase (TOYOBO)), prepared with assay buffer (50 mM Tris (pH 8.0), 140 mM NaCl, 5 mM KCl, 1 mM CaCl2, 1 mM MgCl2, 0.1% BSA (Albumin from bovine serum, SIGMA), 0.0025% Triton X-100), enzyme (0.4 ng/μL human recombinant ATX) (10 μL), compound-containing solution (100 nL) were dispensed to a 384-well plate, incubated at room temperature for 1 hr and the fluorescence (Ex.525 nm/Em.598 nm) was measured. As the standard, choline chloride was used. With a blank free of enzyme was taken as inhibitory rate 100%, and a control free of inhibitor as inhibitory rate 0%, the inhibitory rate was calculated, and IC50 value was calculated from the inhibitory activity percentage at each concentration.

| IC50 | SMILES |
| --- | --- |
| 0.01 µM | COc1c(C(=O)O)cc(-c2cnc(NCc3cccc(OC(F)(F)F)c3)nc2)cc1-c1ccncc1 [Example 33, 2-methoxy-3-pyridin-4-yl-5-[2-(3-trifluoromethoxy-benzylamino)-pyrimidin-5-yl]-benzoic acid] |
| 0.031 µM | COc1c(C(=O)O)cc(-c2cnc(NCc3cccc(OC(F)(F)F)c3)nc2)cc1-c1ccoc1 [Example 140] |
| 0.012 µM | COc1ccc(-c2ccc(NCc3cccc(OC(F)(F)F)c3)nc2)cc1CC(=O)O [Example 109] |
| 0.002 µM | COc1ccc(-c2ccc(NCc3cccc(OC(F)(F)F)c3)nc2)nc1[C@H]1C[C@@H]1C(=O)O [16 (compound 1a), (1S,2S)-2-[5-methoxy-6′-(3-trifluoromethoxy-benzylamino)-[2,3′]bipyridinyl-6-yl]-cyclopropanecarboxylic acid] |
| 0.093 µM | COc1ccc(-c2cnc(NCc3cccc(OC(F)(F)F)c3)nc2)cc1C(=O)O [Example 156] |
| 0.043 µM | COc1ccc(-c2ccc(NCc3cccc(OC(F)(F)F)c3)nc2)cc1OCC(=O)O [Example 129] |
| 0.046 µM | O=C(O)c1cccc2nc(-c3ccc(NCc4cccc(OC(F)(F)F)c4)nc3)[nH]c12 [Example 2, 2-[6-(3-trifluoromethoxy-benzylamino)-pyridin-3-yl]-3H-benzimidazole-4-carboxylic acid] |
| 0.083 µM | COc1ccc(-c2ccc(NCc3cccc(OC(F)(F)F)c3)nc2)cc1C(=O)O [Example 34, 2-methoxy-5-[6-(3-trifluoromethoxy-benzylamino)-pyridin-3-yl]-benzoic acid] |
| 0.003 µM | Cn1nc(C(=O)O)c2cc(-c3cnc(NCc4cccc(OC(F)(F)F)c4)nc3)ccc21 [Example 74] |
| 0.015 µM | COc1c(C#N)cc(-c2ccc(NCc3cccc(OC(F)(F)F)c3)nc2)cc1C(C)(C)C(=O)O [Example 26, 2-{3-cyano-2-methoxy-5-[6-(3-trifluoromethoxy-benzylamino)-pyridin-3-yl]-phenyl}-2-methyl-propionic acid] |
| 0.047 µM | COc1ccc(-c2ccc(NCc3cccc(C(C)C)c3)nc2)cc1C(=O)O [Example 176] |
| 0.013 µM | O=C(O)CCc1cc(-c2cnc(NCc3cccc(OC(F)(F)F)c3)nc2)ccc1Cl [Example 11, 3-{2-chloro-5-[2-(3-trifluoromethoxy-benzylamino)-pyrimidin-5-yl]-phenyl}-propionic acid] |
| 0.035 µM | O=C(O)c1ccc2nc(-c3ccc(NCc4cccc(OC(F)(F)F)c4)nc3)oc2c1 [Example 3, 2-[6-(3-trifluoromethoxy-benzylamino)-pyridin-3-yl]-benzoxazole-6-carboxylic acid] |
| 0.002 µM | COc1ccc(-c2cnc(NCc3cccc(OC(F)(F)F)c3)nc2)nc1[C@H]1C[C@@H]1C(=O)O [17 (compound 4a), (1S,2S)-2-{3-methoxy-6-[2-(3-trifluoromethoxy-benzylamino)-pyrimidin-5-yl]-pyridin-2-yl}-cyclopropanecarboxylic acid] |
| 0.01 µM | O=C(O)c1cc(-c2cnc(NCc3cccc(OC(F)(F)F)c3)nc2)cc(OC2CCOCC2)c1Cl [Example 133] |
| 0.033 µM | COc1ccc(-c2ccc(NCc3cccc(OC(F)(F)F)c3)nc2)cc1CCC(=O)O [Example 22, 3-{2-methoxy-5-[6-(3-trifluoromethoxy-benzylamino)-pyridin-3-yl]-phenyl}-propionic acid] |

| IC50 | SMILES |
| --- | --- |
| 0.092 µM | COc1cc(-c2ccc(NCc3cccc(OC(F)(F)F)c3)nc2)ccc1OC[C@H]1CC[C@H](C(=O)O)CC1 [Example 126] |
| 0.007 µM | COc1cc(-c2ccc(NCc3cccc(OC(F)(F)F)c3)nc2)cc(OC)c1CCC(=O)O [Example 98] |
| 0.037 µM | COc1ccc(-c2cnc(NCc3cccc(OC(F)(F)F)c3)nc2)cc1CCC(=O)O [Example 21, 3-{2-methoxy-5-[2-(3-trifluoromethoxy-benzylamino)-pyrimidin-5-yl]-phenyl}-propionic acid] |
| 0.031 µM | O=C(O)c1cc(-c2cnc(NCc3cccc(OC(F)(F)F)c3)nc2)cc(OC2COC2)c1Cl [Example 136] |
| 0.02 µM | COc1cc(-c2ccc(NCc3cccc(OC(F)(F)F)c3)nc2)ccc1C1CC1C(=O)O (stereo not shown) [Example 88] |
| 0.01 µM | COc1ccc(-c2ccc(NCc3cccc(OC(F)(F)F)c3)nc2)c2[nH]nc(C(=O)O)c12 [Example 69] |
| 0.024 µM | COc1c(Cn2ccnc2)cc(-c2ccc(NCc3cccc(OC(F)(F)F)c3)nc2)cc1C(C)(C)C(=O)O [Example 108] |
| 0.023 µM | COc1c(CCC(=O)O)cc(-c2ccc(NCc3cccc(OC(F)(F)F)c3)nc2)cc1C1COC1 [Example 92] |
| 0.003 µM | Cn1nc(C(=O)O)c2cc(-c3ccc(NCc4cccc(OC(F)(F)F)c4)nc3)ccc21 [Example 7, 1-methyl-5-[6-(3-trifluoromethoxy-benzylamino)-pyridin-3-yl]-1H-indazole-3-carboxylic acid] |
| 0.015 µM | COCCOc1cc(-c2cnc(NCc3cccc(OC(F)(F)F)c3)nc2)cc(C(=O)O)c1Cl [Example 132] |
| 0.017 µM | COc1c(C#N)cc(-c2ccc(NCc3cccc(OC(F)(F)F)c3)nc2)cc1CCC(=O)O [Example 10, 3-{3-cyano-2-methoxy-5-[6-(3-trifluoromethoxy-benzylamino)-pyridin-3-yl]-phenyl}-propionic acid] |
| 0.022 µM | O=C(O)c1cc(-c2cnc(NCc3cccc(OC(F)(F)F)c3)nc2)cc(OC2CNC2)c1Cl [Example 30, 3-(azetidin-3-yloxy)-2-chloro-5-[2-(3-trifluoromethoxy-benzylamino)-pyrimidin-5-yl]-benzoic acid] |
| 0.007 µM | COc1c(C#N)cc(-c2cnc(NCc3cccc(OC(F)(F)F)c3)nc2)cc1CCC(=O)O [Example 85] |
| 0.075 µM | O=C(O)CN1CCN(c2ccc(-c3ccc(NCc4cccc(OC(F)(F)F)c4)nc3)cc2F)C1=O [Example 44] |
| 0.025 µM | COc1c(C#N)cc(-c2ccc(NCc3cccc(OC(F)(F)F)c3)nc2)cc1C(=O)O [Example 63] |

| SMILES | IC50 |
| --- | --- |
| CS(=O)(=O)CCCn1nc(C(=O)O)c2cc(-c3ccc(NCc4cccc(OC(F)(F)F)c4)nc3)ccc21 [Example 75] | 0.006 µM |
| COCCn1nc(C(=O)O)c2cc(-c3ccc(NCc4cccc(OC(F)(F)F)c4)nc3)ccc21 [Example 73] | 0.009 µM |

Each molecule was assayed against T1, ATX activity in plasma (Rattus norvegicus, UniProt Q64610) (assay: Measurement of ATX activity in plasma (ex vivo) after oral administration to rats). Conditions: male Wistar rat, 8 hr after administration, plasma ATX activity vs solvent control.
T1 construct: from tissue; host or cells: plasma of male Wistar rats after oral dosing (ex vivo)
Description: A compound administration solution prepared by wet pulverization in a mixer mill (type: MM400) for 10 min and adjusting to a given concentration with 0.5% aqueous carboxymethylcellulose solution was orally administered to male Wistar rat (5-week-old when used) at 5 mL/kg. Blood samples were collected from the cervical vein over time at 8 to 24 hr after administration. The blood was heparin-treated using a micro blood collection tube Capiject (CJ-AL, TERUMO CORPORATION), and the plasma was separated by centrifugation (4° C., 12,000 rpm, 2 min), and preserved at −80° C. The rats after blood sampling were euthanized by exsanguination from the caudal vena cava under isoflurane inhalation anesthesia. The measurement of ATX activity in plasma was evaluated using the concentration of choline in the plasma, which was liberated from lysophosphatidylcholine (substrate of ATX) by the lysophospholipase D activity of ATX, as an index. An equal amount of 2× assay buffer (200 mM Tris-HCl pH9.0, 10 mM MgCl2, 1 M NaCl, 0.1% Triton X-100) is added to plasma (12 μL) and reacted at 37° C. for 6 hr. The reaction mixture (10 μL) after reaction for 6 hr and 45 μL of reagent R1 solution (100 mM Tris-HCl pH 8.0, 0.5 mM TOOS, 10 U/mL peroxidase, 0.01% Triton X-100) were added and blended and absorbance at 550-700 nm was measured and used as a prevalue. As the standard, choline chloride was used. 1 mM choline chloride was diluted with 2× assay buffer up to 7 steps in 2-fold serial dilution, R1 solution was treated similarly and the absorbance was measured. Furthermore, 15 μL of reagent R2 solution (100 mM Tris-HCl pH 8.0, 1 mM 4-aminoantipyrine, 10 U/mL choline oxidase, 0.01% Triton X-100) was added, and the mixture was reacted at room temperature for 10 min, and absorbance at 550-700 nm was measured. The choline concentration per reaction time was calculated from the difference between the absorbance after R2 solution addition and prevalue measured before R2 addition and used as ATX activity value. inhibitory activity (%)=100×{1-[choline concentration (μM) of test substance administration group/choline concentration (μM) of solvent control group]} <calculating formula>

| Experimental Example 2 rat single administration test (inhibitory activity (%) at 8 hr after 1 mg/kg oral administration) | SMILES |
| --- | --- |
| 82% | COc1ccc(-c2cnc(NCc3cccc(OC(F)(F)F)c3)nc2)cc1C(=O)O [Example 156] |
| 88% | COc1ccc(-c2cnc(NCc3cccc(OC(F)(F)F)c3)nc2)nc1[C@H]1C[C@@H]1C(=O)O [17 (compound 4a), (1S,2S)-2-{3-methoxy-6-[2-(3-trifluoromethoxy-benzylamino)-pyrimidin-5-yl]-pyridin-2-yl}-cyclopropanecarboxylic acid] |
| 84% | COc1c(C#N)cc(-c2ccc(NCc3cccc(OC(F)(F)F)c3)nc2)cc1CCC(=O)O [Example 10, 3-{3-cyano-2-methoxy-5-[6-(3-trifluoromethoxy-benzylamino)-pyridin-3-yl]-phenyl}-propionic acid] |
| 88% | COc1c(C#N)cc(-c2cnc(NCc3cccc(OC(F)(F)F)c3)nc2)cc1CCC(=O)O [Example 85] |
